Test results as given in patent US20110112100A1, “Hepatitis C Virus Inhibitors” (priority 2009, published 2011).
Where a name gives a salt, the structure may show the parent alone. Read-outs that look alike come from different tables or passages of the source.

What was measured:
1a-H77 replicon cells = test: HCV 1a replicon inhibitory activity (Renilla luciferase); assay type: cell-based, hepatitis C virus; conditions: read-out: IC50 value (95% Confidence Intervals) pM Replicon 1A assay
Procedure: (§1) Test compounds were solubilised to 4 mM in 100% DMSO. Dilutions were made to the desired starting concentration in 100% DMSO and then 1 in 3 dilutions made, again in 100% DMSO. 0.5 μl of each sample was added to 384-well assay plates. White Lumitrac (Greiner) plates were used for the 1a and 1b replicon assays and black, clear bottomed (Greiner) plates were used for the WST-1 cytotoxity assay.
1a-H77 replicon cells (licensed from Apath LLC) were resuspended to a concentration of 1.4×10^5 cells/ml by addition of pre-warmed assay medium (Dulbecco's Modified Eagle's Medium (DMEM)+10% fetal calf serum (FCS)). 50 μl of this suspension was added to each well of a 384-well assay plate (Lumitrac, Greiner), already containing 0.5 μl of test compound.
All plates were covered with gas permeable seals and incubated at 37° C., 5% CO2 for 48 hours. After 48 hours, the assay plate was removed from the incubator and left to cool to room temperature for 15 to 30 mins. Medium was removed from the wells and 5 μl 1× lysis buffer (from Promega's Renilla Luciferase assay kit, E2820) was added to each well. The plate was incubated at room temperature for 15 mins then 15 μl 1×Assay Substrate (from the same kit) was added to each well. Luminescence was read immediately using an EnVision (Perkin Elmer) plate reader. The half maximal effective concentration (1050) values were calculated by constructing log concentration-response curves for each compound.

1b (con1) replicon cells = test: HCV 1b replicon inhibitory activity (luciferase, Britelite Plus); assay type: cell-based, hepatitis C virus; conditions: read-out: IC50 value (95% Confidence Intervals) pM Replicon 1B assay
Procedure: as §1
1b (con1) replicon cells (pFK1389lucubineo/NS3-3′/ET/9B, licensed from Ralf Bartenschlager, University of Heidelberg) were resuspended to a concentration of 1.4×10^5 cells/ml by addition of pre-warmed medium (DMEM+10% FCS). 50 μl of this suspension was added to each well of a 384-well assay plate (Lumitrac, Greiner) already containing 0.5 μl of test compound.
All plates were covered with gas permeable seals and incubated at 37° C., 5% CO2 for 48 hours. After 48 hours, the plate was removed from the incubator and left to cool to room temperature for 15-30 mins. 35 ul of reconstituted Lyophilised Britelite Plus Substrate (PerkinElmer, 6016767) to medium was added to each well. Luminescence was read after 1 min but before 15 mins on an EnVision (Perkin Elmer) plate reader. The half maximal effective concentration (1050) values were calculated by constructing log concentration-response curves for each compound.

[1] = Hepatitis C virus, geometric mean, 95% confidence intervals in parentheses, 48 hours, medium with 10% FCS
[2] = geometric mean, 95% confidence intervals in parentheses, 48 hours, medium with 10% FCS

| Compound | IC50 (1a-H77 replicon cells; [1]) [pM] | IC50 (1b (con1) replicon cells; [1]) [pM] | IC50 (1a-H77 replicon cells; Hepatitis C virus, 48 h) [pM] | IC50 (1b (con1) replicon cells; Hepatitis C virus, 48 h) [pM] | other results |
| --- | --- | --- | --- | --- | --- |
| COC(=O)N[C@H](C(=O)N1CCC[C@H]1c1nc(-c2cnc(-c3cnc4cc(-c5cnc([C@@H]6CCCN6C(=O)[C@@H](NC(=O)OC)C(C)C)[nH]5)ccc4n3)nc2)c[nH]1)C(C)C [Example 21, Methyl {(2S)-1-[(2S)-2-{5-[2-(5-{2-[(2S)-1-{(2S)-2-[(methoxycarbonyl)amino]-3-methylbutanoyl}pyrrolidin-2-yl]-1H-imidazol-4-yl}pyrimidin-2-yl)quinoxalin-6-yl]-1H-imidazol-2-yl}pyrrolidin-1-yl]-3-methyl-1-oxobutan-2-yl}carbamate] | 671 | 222 | – | – | – |
| COC(=O)N[C@H](C(=O)N1CCC[C@H]1c1nc(-c2cnc(-c3cc4ccc(-c5cnc([C@@H]6CCCN6C(=O)[C@@H](NC(=O)OC)C(C)C)[nH]5)cc4cn3)nc2)c[nH]1)C(C)C [Example 22, Methyl {(2S)-1-[(2S)-2-{4-[2-(7-{2-[(2S)-1-{(2S)-2-[(methoxycarbonyl)amino]-3-methylbutanoyl}pyrrolidin-2-yl]-1H-imidazol-5-yl}isoquinolin-3-yl)pyrimidin-5-yl]-1H-imidazol-2-yl}pyrrolidin-1-yl]-3-methyl-1-oxobutan-2-yl}carbamate] | 2190 | 152 | – | – | – |
| COC(=O)N[C@H](C(=O)N1CCC[C@H]1c1ncc(-c2ccc3cc(-c4cnc(-c5cnc([C@@H]6CCCN6C(=O)[C@@H](NC(=O)OC)C(C)C)[nH]5)cn4)ccc3c2)[nH]1)C(C)C [Example 24, Methyl {(2S)-1-[(2S)-2-{5-[6-(5-{2-[(2S)-1-{(2S)-2-[(methoxycarbonyl)amino]-3-methylbutanoyl}pyrrolidin-2-yl]-1H-imidazol-4-yl}pyrazin-2-yl)naphthalen-2-yl]-1H-imidazol-2-yl}pyrrolidin-1-yl]-3-methyl-1-oxobutan-2-yl}carbamate] | 19900 | 2010 | – | – | – |
| CC[C@H](NC(=O)OC)C(=O)N1CCC[C@H]1c1ncc(-c2ccc3cc(-c4ccc(-c5cnc([C@@H]6CCCN6C(=O)[C@@H](NC(=O)OC)C(C)C)[nH]5)cc4)ccc3c2)[nH]1 [Example 26, Methyl {(2S)-1-[(2S)-2-{5-[4-(6-{2-[(2S)-1-{(2S)-2-[(methoxycarbonyl)amino]butanoyl}pyrrolidin-2-yl]-1H-imidazol-5-yl}naphthalen-2-yl)phenyl]-1H-imidazol-2-yl}pyrrolidin-1-yl]-3-methyl-1-oxobutan-2-yl}carbamate] | 64.1 | 1.92 | – | – | – |
| COC(=O)N[C@H](C(=O)N1CCC[C@H]1c1nc(-c2ccc(-c3cnc4cc(-c5cnc([C@@H]6CCCN6C(=O)CNC(=O)CC(C)C)[nH]5)ccc4n3)cc2)c[nH]1)C(C)C [Example 33, Methyl {(2S)-3-methyl-1-[(2S)-2-(4-{4-[6-(2-{(2S)-1-[N-(3-methylbutanoyl)glycyl]pyrrolidin-2-yl}-1H-imidazol-5-yl)quinoxazolin-2-yl]phenyl}-1H-imidazol-2-yl}pyrrolidin-1-yl]-1-oxobutan-2-yl} carbamate trifluoroacetic acid salt] | – | – | – | – | IC50 (1a-H77 replicon cells; [2]): 2590 pM; IC50 (1b (con1) replicon cells; [2]): 32.2 pM |
| COC(=O)N[C@H](C(=O)N1CCC[C@H]1c1nc(-c2ccc(-c3cnc4cc(-c5cnc([C@@H]6CCCN6C(=O)[C@H](CCC(N)=O)NC(C)=O)[nH]5)ccc4n3)cc2)c[nH]1)C(C)C [Example 34, Methyl {(2S)-1-[(2S)-2-{4-[4-(6-[2-[(2S)-1-(N^2-acetyl-L-glutaminyl)pyrrolidin-2-yl]-1H-imidazol-5-yl}quinoxalin-2-yl)phenyl]-1H-imidazol-2-yl}pyrrolidin-1-yl]-3-methyl-1-oxobutan-2-yl}carbamate trifluoroacetic acid salt] | – | – | 5930 | 1430 | – |
| COC(=O)N[C@H](C(=O)N1CCC[C@H]1c1nc(-c2ccc(-c3cnc4cc(-c5cnc([C@@H]6CCCN6C(=O)CNC(C)=O)[nH]5)ccc4n3)cc2)c[nH]1)C(C)C [Example 35, Methyl {(2S)-1-[(2S)-2-{4-[4-(6-{2-[(2S)-1-(N-acetylglycyl)pyrrolidin-2-yl]-1H-imidazol-5-yl}quinoxalin-2-yl)phenyl]-1H-imidazol-2-yl}pyrrolidin-1-yl]-3-methyl-1-oxobutan-2-yl}carbamate trifluoroacetic acid salt] | – | – | 2300 | 254 | – |
| COC(=O)N[C@H](C(=O)N1CCC[C@H]1c1nc(-c2ccc(-c3cnc4cc(-c5cnc([C@@H]6CCCN6C(=O)CNC(=O)CNC(C)=O)[nH]5)ccc4n3)cc2)c[nH]1)C(C)C [Example 36, Methyl {(2S)-1-[(2S)-2-{4-[4-(6-{2-[(2S)-1-(N-acetylglycylglycyl)pyrrolidin-2-yl]-1H-imidazol-5-yl}quinoxalin-2-yl)phenyl]-1H-imidazol-2-yl}pyrrolidin-1-yl]-3-methyl-1-oxobutan-2-yl}carbamate trifluoroacetic acid salt] | – | – | 29800 | 1740 | – |
| CC[C@@H](NC(C)=O)C(=O)N1CCC[C@H]1c1ncc(-c2ccc3nc(-c4ccc(-c5c[nH]c([C@@H]6CCCN6C(=O)[C@@H](NC(=O)OC)C(C)C)n5)cc4)cnc3c2)[nH]1 [Example 38, Methyl {(2S)-1-[(2S)-2-(4-{4-[6-(2-{(2S)-1-[(2R)-2-(acetylamino)butanoyl]pyrrolidin-2-yl}-1H-imidazol-5-yl)quinoxalin-2-yl]phenyl}-1H-imidazol-2-yl)pyrrolidin-1-yl]-3-methyl-1-oxobutan-2-yl} carbamate trifluoroacetic acid salt] | – | – | – | – | IC50 (1a-H77 replicon cells; [2]): 1500 pM; IC50 (1b (con1) replicon cells; [2]): 71.9 pM |
| CC[C@H](NC(C)=O)C(=O)N1CCC[C@H]1c1ncc(-c2ccc3nc(-c4ccc(-c5c[nH]c([C@@H]6CCCN6C(=O)[C@@H](NC(=O)OC)C(C)C)n5)cc4)cnc3c2)[nH]1 [Example 39, Methyl {(2S)-1-[(2S)-2-(4-{4-[6-(2-{(2S)-1-[(2S)-2-(acetylamino)butanoyl]pyrrolidin-2-yl}-1H-imidazol-5-yl)quinoxalin-2-yl]phenyl}-1H-imidazol-2-yl)pyrrolidin-1-yl]-3-methyl-1-oxobutan-2-yl}carbamate trifluoroacetic acid salt] | – | – | 1240 | 48.1 | – |
| COC(=O)N[C@H](C(=O)N1CCC[C@H]1c1nc(-c2ccc(-c3cnc4cc(-c5cnc([C@@H]6CCCN6C(=O)[C@@H](NC(C)=O)[C@@H](C)O)[nH]5)ccc4n3)cc2)c[nH]1)C(C)C [Example 40, Methyl {(2S)-1-[(2S)-2-{4-[4-(6-{2-[(2S)-1-(N-acetyl-L-threonyl)pyrroldiin-2-yl]-1H-imidazol-5-yl}quinoxalin-2-yl)phenyl]-1H-imidazol-2-yl}pyrrolidin-1-yl]-3-methyl-1-oxobutan-2-yl}carbamate trifluoroacetic acid salt] | – | – | – | – | IC50 (1a-H77 replicon cells; [2]): 353 pM; IC50 (1b (con1) replicon cells; [2]): 55.8 pM |
| COC(=O)N[C@H](C(=O)N1CCC[C@H]1c1nc(-c2ccc(-c3cnc4cc(-c5cnc([C@@H]6CCCN6C(=O)CNC(=O)c6cnc(C)cn6)[nH]5)ccc4n3)cc2)c[nH]1)C(C)C [Example 41, Methyl {(2S)-3-methyl-1-[(2S)-2-{4-[4-(6-{2-[(2S)-1-{N-[(5-methylpyrazin-2-yl)carbonyl]glycyl}pyrrolidin-2-yl]-1H-imidazol-5-yl}quinoxalin-2-yl)phenyl]-1H-imidazol-2-yl}pyrrolidin-1-yl]-1-oxobutan-2-yl}carbamate trifluoroacetic acid salt] | – | – | 1950 | 128 | – |
| COC(=O)N[C@H](C(=O)N1CCC[C@H]1c1nc(-c2ccc(-c3cnc4cc(-c5cnc([C@@H]6CCCN6C(=O)CNC(=O)c6cc(C)on6)[nH]5)ccc4n3)cc2)c[nH]1)C(C)C [Example 42, Methyl {(2S)-3-methyl-1-[(2S)-2-{4-[4-(6-{2-[(2S)-1-{N-[(5-methylisoxazol-3-yl)carbonyl]glycyl}pyrrolidin-2-yl]-1H-imidazol-5-yl}quinoxalin-2-yl)phenyl]-1H-imidazol-2-yl}pyrrolidin-1-yl]-1-oxobutan-2-yl}carbamate trifluoroacetic acid salt] | – | – | 2870 | 247 | – |
